Results on 17 molecules are retold here after US9371336B2, “Compounds for treating spinal muscular atrophy” (PTC Therapeutics Inc., priority 2012, dated 2016).

In series [1] the test system is SMN2 minigene mRNA (SMN2-A minigene construct). Nature of the series: SMN2 minigene mRNA splicing RT-qPCR assay in cultured cells. The class given is cell-based, human. The conditions noted are these: Homo sapiens, HEK293-H; HEK293H cells stably transfected with SMN2-A minigene, 24 hours, 7-point concentration data; concentration giving 1.5-fold SMN2 full length mRNA relative to vehicle-treated cells; read-out: EC1.5x for production of full length SMN2 mRNA. The essentials: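 Full-length SMN2 minigene mRNA, measured by exon 7/luciferase-specific RT-qPCR that excludes endogenous SMN1/SMN2, was normalized to GAPDH and expressed relative to vehicle-treated cells via modified ΔΔCt. Stably transfected HEK293H cells received compound (7-point, 3.16-fold series, duplicates) for 24 h at 37 °C.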
In general terms: In qPCR the cycle at which signal appears reflects the starting amount.

In the next series the test system is Smn protein. The experiment in a line: Smn protein assay (HTRF) in cultured cells (SMA patient fibroblasts GM03813). The class given is cell-based, human. As to conditions: 48 hours; for EC1.5x for Smn protein expression: SMA patient fibroblast cells (GM03813), HTRF, 7-point concentration data, concentration producing 1.5 times Smn protein vs DMSO vehicle control; for maximum fold (Fold) increase of Smn protein: SMA patient fibroblast cells, 7-point concentration curve, relative to vehicle control. The gist of the method:
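SMA patient fibroblasts (GM03813) were treated 48 h at 37° C with a 7-point, 3.16-fold compound series in triplicate, then lysed in RIPA. Smn was read by HTRF (anti-SMN d2/kryptate, 665/620 nm ratio). ΔF versus blank was divided by vehicle ΔF to give fold Smn increase.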

Bounds are passed on as bounds.

As a reminder, the melting point is the temperature of the solid-liquid transition. Molecule `Cc1cc(F)c2nc(-c3cc4ccc(N5CCCNCC5)nc4oc3=O)cn2c1.Cl` [Cpd 107, 7-(1,4-diazepan-1-yl)-3-(8-fluoro-6-methylimidazo[1,2-a]pyridin-2-yl)-2H-pyrano[2,3-b]pyridin-2-one hydrochloride] came in with a melting point of 276 to 279 °C. For the same molecule, in series [1], the EC (1.5-fold) is at most 0.1 µM. Also, in the series with Smn protein, the “EC1.5x for Smn protein expression” value is “*** (an EC1.5× between >0.3 μM and ≦1 μM is indicated by three stars (***))”; the “maximum fold (Fold) increase of Smn protein” value (shortened to “maximum fold (Fold) increase”) was “**** (a fold increase between >1.5 and ≦1.65 is indicated by four stars (****))”.

Molecule `CCN1CCN(c2ccc3cc(-c4cn5cccc(Cl)c5n4)c(=O)oc3n2)CC1` [Cpd 133, 3-(8-chloroimidazo[1,2-a]pyridin-2-yl)-7-(4-ethylpiperazin-1-yl)-2H-pyrano[2,3-b]pyridin-2-one] registered a melting point of 218 to 221 °C. The EC (1.5-fold) in series [1] was at most 0.1 µM. Besides, in the series on Smn protein, the “EC1.5x for Smn protein expression” value was “*** (an EC1.5× between >0.3 μM and ≦1 μM is indicated by three stars (***))”; the “maximum fold (Fold) increase” value was “*** (a fold increase between >1.35 and ≦1.5 is indicated by three stars (***))”.

The molecule `Cc1cn2cc(-c3cc4ccc(N5CCCN(C)CC5)nc4oc3=O)nc2c(C)n1` [Cpd 91, 3-(6,8-dimethylimidazo[1,2-a]pyrazin-2-yl)-7-(4-methyl-1,4-diazepan-1-yl)-2H-pyrano[2,3-b]pyridin-2-one] came in with a melting point of 243 to 245 °C. For the same molecule, the EC (1.5-fold) in series [1] was at most 0.1 µM. For the same molecule, in the series with Smn protein, the “EC1.5x for Smn protein expression” value is “**** (an EC1.5×≦0.3 μM is indicated by four stars (****))” and the “maximum fold (Fold) increase” value is “***** (a fold increase >1.65 is indicated by five stars (*****))”.

The molecule `CN1CCCN(c2ccc3cc(-c4cn5cccc(Cl)c5n4)c(=O)oc3n2)CC1` [Cpd 50, 3-(8-chloroimidazo[1,2-a]pyridin-2-yl)-7-(4-methyl-1,4-diazepan-1-yl)-2H-pyrano[2,3-b]pyridin-2-one] returned a melting point of 245 to 246 °C. Further, in series [1], the EC (1.5-fold) was at most 0.1 µM. Also, in the series with Smn protein, the “EC1.5x for Smn protein expression” value is on record as “**** (an EC1.5×≦0.3 μM is indicated by four stars (****))” and the “maximum fold (Fold) increase” value was “***** (a fold increase >1.65 is indicated by five stars (*****))”.

Consider `CCN1CCCN(c2ccc3cc(-c4cn5cccnc5n4)c(=O)oc3n2)CC1` [Cpd 126, 7-(4-ethyl-1,4-diazepan-1-yl)-3-(imidazo[1,2-a]pyrimidin-2-yl)-2H-pyrano[2,3-b]pyridin-2-one], for which the melting point lay in the range of 271 to 273 °C. Besides, the EC (1.5-fold) in series [1] was 0.1 to 0.3 µM. For the same molecule, in the series on Smn protein, the “maximum fold (Fold) increase” value is “*** (a fold increase between >1.35 and ≦1.5 is indicated by three stars (***))”.

On to `CCN1CCN(c2ccc3cc(-c4cn5cc(C)cc(F)c5n4)c(=O)oc3n2)C[C@@H]1C` [Cpd 137, 7-[(3S)-4-ethyl-3-methylpiperazin-1-yl]-3-(8-fluoro-6-methylimidazo[1,2-a]pyridin-2-yl)-2H-pyrano[2,3-b]pyridin-2-one], for which the melting point is 239 to 243 °C. Moreover, the EC (1.5-fold) in series [1] is at most 0.1 µM. In the series on Smn protein, the “EC1.5x for Smn protein expression” value is “*** (an EC1.5× between >0.3 μM and ≦1 μM is indicated by three stars (***))”; the “maximum fold (Fold) increase” value was “**** (a fold increase between >1.5 and ≦1.65 is indicated by four stars (****))”.

`CCCN1CCN(c2ccc3cc(-c4nc5c(Cl)cccc5s4)c(=O)oc3n2)CC1` [Cpd 13, 3-(4-chloro-1,3-benzothiazol-2-yl)-7-(4-propylpiperazin-1-yl)-2H-pyrano[2,3-b]pyridin-2-one] gave a melting point of 251 to 254 °C. The EC (1.5-fold) in series [1] is 1 to 3 µM. For the same molecule, in the series with Smn protein, the “maximum fold (Fold) increase” value is “*** (a fold increase between >1.35 and ≦1.5 is indicated by three stars (***))”.

Take `Cc1ccc2nc(-c3cc4cnc(N5CCN(C)CC5)cc4oc3=O)cn2c1` [Cpd 34, 3-(6-methylimidazo[1,2-a]pyridin-2-yl)-7-(4-methylpiperazin-1-yl)-2H-pyrano[3,2-c]pyridin-2-one]: the melting point lay within 264 to 268 °C. The EC (1.5-fold) in series [1] lay in the range of 1 to 3 µM. For the same molecule, the “maximum fold (Fold) increase” value with Smn protein was “*** (a fold increase between >1.35 and ≦1.5 is indicated by three stars (***))”.

The molecule `CCCN1CCN(c2ccc3cc(-c4nc(C)cs4)c(=O)oc3n2)CC1` [Cpd 21, 3-(4-methyl-1,3-thiazol-2-yl)-7-(4-propylpiperazin-1-yl)-2H-pyrano[2,3-b]pyridin-2-one] returned a melting point of 210 to 214 °C. Moreover, the EC (1.5-fold) in series [1] lay within 3 to 30 µM. In addition, the “maximum fold (Fold) increase” value with Smn protein is “* (A maximum fold increase ≦1.2 is indicated by one star (*))”.

On to `C[C@@H]1CN(c2ccc3cc(-c4cn5ccccc5n4)c(=O)oc3n2)C[C@H](C)N1C` [Cpd 121, 3-(imidazo[1,2-a]pyridin-2-yl)-7-[(3R,5S)-3,4,5-trimethylpiperazin-1-yl]-2H-pyrano[2,3-b]pyridin-2-one], for which the melting point was in the range of 242 to 246 °C. The EC (1.5-fold) in series [1] was at most 0.1 µM. Also, in the series with Smn protein, the “EC1.5x for Smn protein expression” value was “* (An EC1.5× for Smn protein expression between >3 μM and ≦10 μM is indicated by one star (*))”; the “maximum fold (Fold) increase” value is “*** (a fold increase between >1.35 and ≦1.5 is indicated by three stars (***))”.

Molecule `CN1CCN(c2ccc3cc(-c4cn5cccc(F)c5n4)c(=O)oc3n2)CC1` [Cpd 110, 3-(8-fluoroimidazo[1,2-a]pyridin-2-yl)-7-(4-methylpiperazin-1-yl)-2H-pyrano[2,3-b]pyridin-2-one] displayed a melting point of 258 to 262 °C. Besides, the EC (1.5-fold) in series [1] is at most 0.1 µM. In the series on Smn protein, the “EC1.5x for Smn protein expression” value is “**** (an EC1.5×≦0.3 μM is indicated by four stars (****))”; the “maximum fold (Fold) increase” value was “**** (a fold increase between >1.5 and ≦1.65 is indicated by four stars (****))”.

`Cc1ccc2nc(-c3cc4ccc(N5C[C@@H](C)N[C@@H](C)C5)nc4oc3=O)cn2c1` [Cpd 67, 7-[(3R,5S)-3,5-dimethylpiperazin-1-yl]-3-(6-methylimidazo[1,2-a]pyridin-2-yl)-2H-pyrano[2,3-b]pyridin-2-one] registered a melting point of 248 to 251 °C. For the same molecule, the EC (1.5-fold) in series [1] was at most 0.1 µM. Also, in the series on Smn protein, the “EC1.5x for Smn protein expression” value is “*** (an EC1.5× between >0.3 μM and ≦1 μM is indicated by three stars (***))”; the “maximum fold (Fold) increase” value is “**** (a fold increase between >1.5 and ≦1.65 is indicated by four stars (****))”.

On to `Cl.O=c1oc2nc(N3CCNCC3)ccc2cc1-c1nc(C(F)(F)F)cs1` [Cpd 16, 7-(piperazin-1-yl)-3-[4-(trifluoromethyl)-1,3-thiazol-2-yl]-2H-pyrano[2,3-b]pyridin-2-one hydrochloride], for which the melting point lay within 274 to 280 °C. The EC (1.5-fold) in series [1] lay in the range of 1 to 3 µM. The “maximum fold (Fold) increase” value in the series with Smn protein is recorded as “* (A maximum fold increase ≦1.2 is indicated by one star (*))”.

Consider `CCN1[C@H](C)CN(c2ccc3cc(-c4cn5ccccc5n4)c(=O)oc3n2)C[C@@H]1C` [Cpd 129, 7-[(3R,5S)-4-ethyl-3,5-dimethylpiperazin-1-yl]-3-(imidazo[1,2-a]pyridin-2-yl)-2H-pyrano[2,3-b]pyridin-2-one], for which the melting point fell in the range of 281 to 284 °C. Besides, the EC (1.5-fold) in series [1] is at most 0.1 µM. Besides, in the series with Smn protein, the “EC1.5x for Smn protein expression” value is recorded as “**** (an EC1.5×≦0.3 μM is indicated by four stars (****))” and the “maximum fold (Fold) increase” value is on record as “***** (a fold increase >1.65 is indicated by five stars (*****))”.

In turn, `CCN1CCCN(c2ccc3cc(-c4cn5cc(C)ncc5n4)c(=O)oc3n2)CC1` [Cpd 142, 7-(4-ethyl-1,4-diazepan-1-yl)-3-(6-methylimidazo[1,2-a]pyrazin-2-yl)-2H-pyrano[2,3-b]pyridin-2-one] gave a melting point of 217 to 221 °C. Besides, the EC (1.5-fold) in series [1] was at most 0.1 µM. In the series on Smn protein, the “EC1.5x for Smn protein expression” value is “*** (an EC1.5× between >0.3 μM and ≦1 μM is indicated by three stars (***))”; the “maximum fold (Fold) increase” value was “**** (a fold increase between >1.5 and ≦1.65 is indicated by four stars (****))”.

The molecule `Cc1ccn2cc(-c3cc4ccc(N5CCN(C)C[C@@H]5C)nc4oc3=O)nc2c1` [Cpd 62, 7-[(2S)-2,4-dimethylpiperazin-1-yl]-3-(7-methylimidazo[1,2-a]pyridin-2-yl)-2H-pyrano[2,3-b]pyridin-2-one] displayed a melting point of 242 to 246 °C. For the same molecule, the EC (1.5-fold) in series [1] is at most 0.1 µM. Besides, in the series on Smn protein, the “EC1.5x for Smn protein expression” value is “**** (an EC1.5×≦0.3 μM is indicated by four stars (****))”; the “maximum fold (Fold) increase” value was “**** (a fold increase between >1.5 and ≦1.65 is indicated by four stars (****))”.

For `C[C@@H]1CN(c2ccc3cc(-c4cn5cccc(Cl)c5n4)c(=O)oc3n2)C[C@H](C)N1C` [Cpd 120, 3-(8-chloroimidazo[1,2-a]pyridin-2-yl)-7-[(3R,5S)-3,4,5-trimethylpiperazin-1-yl]-2H-pyrano[2,3-b]pyridin-2-one], the melting point was in the range of 241 to 245 °C. Moreover, the EC (1.5-fold) in series [1] is at most 0.1 µM. For the same molecule, the “maximum fold (Fold) increase” value in the series with Smn protein is “*** (a fold increase between >1.35 and ≦1.5 is indicated by three stars (***))”.
